# Laboratory results published in US20260306633A1, “A COMBINATION THERAPY FOR CANCER TREATMENT” (Purdue Research Foundation, priority 2023, published 2026).
# “Also recorded” adds a separate entry of the source. Where two headings read alike, the source gives them in different places.
# Assays:
# [1] = tested on: human gastric adenocarcinoma AGS cell line; conditions: another study; cited from earlier work
# [2] = tested on: human triple-negative breast cancer (TNBC) BT-549 cells; experiment: Transmission electron microscopy of cell ultrastructure; type: cell-based; conditions: paclitaxel 50 nM
# Protocol: Irregularly shaped nuclear membrane is apparent in treated cells in the dark or in the presence of light. Light dose in 30 seconds=0.48 J cm^−2. Concentrations: PSs=50 nM; paclitaxel=50 nM; and, fluororuracil=25 μM.
# Cells were cultured to confluence in a petri dish ([…] in diameter), treated for 24 hrs with 500 nM of PS, then irradiated for 2 minutes as above. After 12 photosensitization 24 hours later, cells were scraped gently in the dark, fixed in 2.5% glutaraldehyde in 0.1M [COMPOUND LEFT OUT] buffer, then post-fixed with 1% osmium tetroxide (containing 0.8% [COMPOUND LEFT OUT], treated with 2% aqueous uranyl acetate, and subsequently dehydrated in gradient concentrations (50-100%) of varying ethanol:water mixtures. The resulting pellets were embedded in resin and consequently cut with an ultramicrotome to a 70 nm thickness, then viewed using Tecnai T20 transmission electron microscope.
# Transmission electron micrographs of TNBC cells clearly differentiated distinct cellular compartments, in particular, of nuclear components and plasma membrane during treatment as shown in FIG. 19. A typical normal organelle morphology with smooth-contoured cellular plasma membrane is depicted in TNBC cells irradiated with light without treatment with PS nor chemotherapeutic agent (FIG. 19A). […]
# human TNBC BT-549 cells = experiment: Fluorescence microscopy (Hoechst 33258) of cell morphology / cell death pathway; type: cell-based; conditions: paclitaxel 50 nM, unirradiated (FIG. 18I)
# TNBC BT-549 cells = experiment: Cell survival / cell inhibition (MTT cell cytotoxicity assay) after 24 h treatment with photosensitizer and/or chemotherapeutic agent, dark or light-irradiated; type: cell-based, human; conditions: for viability at 0.1 µM / viability at 0.01 µM: paclitaxel; for viability at 0.1 µM: high end of 10-100 nM, read-out: cell survival, drug only (end of decrease); for viability at 0.01 µM: low end of 10-100 nM, read-out: cell survival, drug only (start of decrease)
# [3] = Homo sapiens, BT-549, 24 h, dark
# [4] = Homo sapiens, BT-549, 24 h, light
structure (smiles),measurement,setting,value
"CC(=O)O[C@H]1C(=O)[C@@]2(C)[C@H]([C@H](OC(=O)c3ccccc3)[C@]3(O)C[C@H](OC(=O)[C@H](O)[C@@H](NC(=O)c4ccccc4)c4ccccc4)C(C)=C1C3(C)C)[C@]1(OC(C)=O)CO[C@@H]1C[C@@H]2O [paclitaxel, reference compound]",cell death modes triggered,[1],"apoptosis, autophagy, and mitotic catastrophe were triggered"
same,"ultrastructure, paclitaxel in the dark",[2]; dark (FIG. 19C),Irregularly shaped nuclear envelope; also recorded: loss of nuclear circularity and formation of chromatin condensation
same,"ultrastructure, paclitaxel irradiated",[2]; light 0.48 J/cm^2 (FIG. 19E),smaller nuclei in multi-nucleated cells indicating chromosomal condensation; also recorded: split and fragmented with many atypical vesicular components in the cytosolic compartment
same,"cell morphology, paclitaxel-treated",human TNBC BT-549 cells,shrunk cells and chromatin fragmentation are evident; also recorded: Shrunk cells and chromatin condensation are evident
same,viability at 0.05 µM,"TNBC BT-549 cells; Homo sapiens, BT-549, 24 h, paclitaxel 50 nM, dark, read-out: cell survival, drug only",57%
same,viability at 0.1 µM,TNBC BT-549 cells; [3],49%
same,viability at 0.01 µM,TNBC BT-549 cells; [3],64%
same,viability at 0.1 µM,TNBC BT-549 cells; [4],52%
same,viability at 0.01 µM,TNBC BT-549 cells; [4],66%
same,"average increase in cell survival upon light irradiation compared to unirradiated cells, drug only","TNBC BT-549 cells; drug alone, light vs dark",4%
